From patent US20160095925A1 (CADILA HEALTHCARE LIMITED, priority 2014, published 2016)
Where two headings read alike, the source gives them in different places.

Tests used:
[1] = Analytical results of Azacitidine (API), untreated and gamma radiated: description, related substances; type: physicochemical
[2] = formation of RGU increased in acidic and basic conditions; cited from earlier work
[3] = cited from earlier work

Description ([1]; gamma radiated): White to off | Related Substances: Single max. impurity ([1]; gamma radiated): 0.05% | Related Substances: Total impurities ([1]; gamma radiated): 0.24% | Description ([1]; untreated): White to off | Related Substances: Single max. impurity ([1]; untreated): 0.04% | Related Substances: Total impurities ([1]; untreated): 0.19%
SMILES: Nc1ncn([C@@H]2O[C@H](CO)[C@@H](O)[C@H]2O)c(=O)n1 [Azacitidine, 4-amino-1-β-D-ribofuranosyl-1,3,5-triazin-2(1H)-one]
Optimal pH for stable formulation [2]: 6-7 | Solubility ([3]; 5% Tween 80 in water): sparingly soluble | Solubility ([3]; 5% dextrose in water): sparingly soluble | Solubility ([3]; N-methyl-2-pyrrolidone): sparingly soluble | Solubility ([3]; acetone): insoluble | Solubility ([3]; dimethylsulfoxide (DMSO)): soluble | Solubility ([3]; ethanol/water (50/50)): slightly soluble | Solubility ([3]; ethanol): insoluble | Solubility ([3]; methyl ethyl ketone): insoluble | Solubility ([3]; normal saline): sparingly soluble | Solubility ([3]; polyethylene glycol): slightly soluble | Solubility ([3]; propylene glycol): slightly soluble | Solubility ([3]; water saturated octanol): sparingly soluble | Solubility ([3]; water): sparingly soluble
